Results reported in ChEMBL document CHEMBL4118258, “2-Substituted-1-(2-morpholinoethyl)-1H-naphtho[2,3-d]imidazole-4,9-diones: Design, synthesis and antiproliferative activity” (Bioorg Med Chem Lett, 2018).
pIC50: −log10 of the molar value.

How the values were obtained:
HeLa = assay: Antiproliferative activity against human HeLa cells after 72 hrs by MTT assay; assay type: functional, cell-based
A549 = assay: cells; details: Homo sapiens, A549, 72 h
Description: Antiproliferative activity against human A549 cells after 72 hrs by MTT assay

MCF7 = assay: Antiproliferative activity against human MCF7 cells after 72 hrs by MTT assay; assay type: functional, cell-based; details: MCF7, 72 h
L929 = assay: Antiproliferative activity against mouse L929 cells after 72 hrs by MTT assay; details: L929, 72 h

| pIC50 (HeLa) | pIC50 (A549) | pIC50 (MCF7) | Structure (SMILES) | pIC50 (L929) |
| --- | --- | --- | --- | --- |
| 3.78 | 3.78 | 3.78 | C[N+]1(CCn2c(-c3cccc(F)c3)nc3c2C(=O)c2ccccc2C3=O)CCOCC1 | < 3.70 |
| < 3.70 | < 3.70 | < 3.70 | c1c2ncn(CCN3CCOCC3)c2cc2ncn(CCN3CCOCC3)c12 | < 3.70 |
| < 3.70 | 3.76 | 3.91 | CCC(C)c1nc2c(n1CCN1CCOCC1)C(=O)c1ccccc1C2=O (configuration not stated) | 4.00 |
| 3.88 | 4.06 | 3.97 | O=C1c2ccccc2C(=O)c2c1nc(-c1cccc(F)c1)n2CCN1CCOCC1 | 3.88 |
| 3.95 | 4.07 | 4.06 | COc1ccc(-c2nc3c(n2CCN2CCOCC2)C(=O)c2ccccc2C3=O)cc1 | 4.00 |
| 3.74 | 4.59 | < 3.70 | CC(C)Cc1nc2c(n1CCN1CCOCC1)C(=O)c1ccccc1C2=O | 3.80 |
| < 3.70 | < 3.70 | 3.74 | C[N+]1(CCn2c(-c3ccccc3)nc3c2C(=O)c2ccccc2C3=O)CCOCC1 | < 3.70 |
| 3.84 | 4.07 | 3.75 | CCc1nc2c(n1CCN1CCOCC1)C(=O)c1ccccc1C2=O | 3.97 |
| 5.08 | 5.37 | 4.97 | COc1ccc(-c2nc3c(n2CCN2CCOCC2)C(=O)c2ccccc2C3=O)cc1Cl | 4.17 |
| 4.01 | 3.76 | < 3.70 | COc1ccc(-c2nc3c(n2CC[N+]2(C)CCOCC2)C(=O)c2ccccc2C3=O)cc1Cl | < 3.70 |
| 4.10 | 4.20 | 4.41 | O=C1c2ccccc2C(=O)c2c1nc(-c1ccc(-c3nc4c(n3CCN3CCOCC3)C(=O)c3ccccc3C4=O)cc1)n2CCN1CCOCC1 | 3.92 |
| 3.91 | < 3.70 | 3.96 | CC(C)c1ccc(CC(C)c2nc3c(n2CCN2CCOCC2)C(=O)c2ccccc2C3=O)cc1 (configuration not stated) | < 3.70 |
| 4.05 | 4.66 | 3.82 | CC(C)(C)c1nc2c(n1CCN1CCOCC1)C(=O)c1ccccc1C2=O | 4.07 |
| 4.02 | 4.24 | 3.97 | CCC(CC)c1nc2c(n1CCN1CCOCC1)C(=O)c1ccccc1C2=O | 4.10 |
| 3.73 | 4.48 | 3.87 | O=C1c2ccccc2C(=O)c2c1nc(-c1cccc(C(F)(F)F)c1)n2CCN1CCOCC1 | 4.14 |
| 3.72 | 3.83 | 3.77 | O=C1c2ccccc2C(=O)c2c1nc(-c1ccco1)n2CCN1CCOCC1 | 3.76 |
| 4.00 | 4.15 | 3.97 | CC(C)c1ccc(-c2nc3c(n2CCN2CCOCC2)C(=O)c2ccccc2C3=O)cc1 | 4.14 |
| 4.09 | 4.11 | 4.23 | O=C1c2ccccc2C(=O)c2c1nc(/C=C/c1ccccc1)n2CCN1CCOCC1 | 3.92 |
| 3.80 | 3.94 | 3.88 | C[N+]1(CCn2c(-c3ccsc3)nc3c2C(=O)c2ccccc2C3=O)CCOCC1 | 3.88 |
| 3.96 | 4.42 | 3.78 | O=C1c2ccccc2C(=O)c2c1nc(-c1cccnc1)n2CCN1CCOCC1 | 4.35 |
| 4.05 | 4.14 | 3.78 | Cc1ccc(CCc2nc3c(n2CCN2CCOCC2)C(=O)c2ccccc2C3=O)o1 | 4.02 |
| 3.76 | 4.04 | 3.86 | O=C1c2ccccc2C(=O)c2c1nc(-c1cccs1)n2CCN1CCOCC1 | 3.75 |

| pIC50 (HeLa) | pIC50 (A549) | pIC50 (MCF7) | Structure (SMILES) | pIC50 (L929) |
| --- | --- | --- | --- | --- |
| 3.87 | 4.68 | 3.94 | O=C1c2ccccc2C(=O)c2c1nc(-c1ccsc1)n2CCN1CCOCC1 | 3.91 |
| 4.10 | 4.11 | 4.27 | O=C1c2ccccc2C(=O)c2c1nc(-c1cnccn1)n2CCN1CCOCC1 | 4.30 |
| 3.92 | 4.34 | 3.85 | O=C1c2ccccc2C(=O)c2c1nc(-c1ccc(Cl)c(C(F)(F)F)c1)n2CCN1CCOCC1 | 3.95 |
| < 3.70 | 3.95 | 3.74 | Cc1cc2ncn(CCN3CCOCC3)c2cc1C | 3.73 |
| 3.98 | 4.49 | 4.42 | O=C1c2ccccc2C(=O)c2c1nc(-c1ccccn1)n2CCN1CCOCC1 | 3.93 |
| 3.82 | 3.92 | 3.85 | O=C1c2ccccc2C(=O)c2c1nc(-c1ccncc1)n2CCN1CCOCC1 | 3.94 |
| < 3.70 | 4.12 | < 3.70 | O=C1c2ccccc2C(=O)c2c1nc(C1CCCCC1)n2CCN1CCOCC1 | 4.10 |
| 4.02 | 4.43 | 4.02 | CCCc1nc2c(n1CCN1CCOCC1)C(=O)c1ccccc1C2=O | 4.10 |
| 3.90 | 4.49 | 3.91 | CC(C)c1nc2c(n1CCN1CCOCC1)C(=O)c1ccccc1C2=O | 4.10 |
| 4.21 | 4.61 | 4.15 | O=C1c2ccccc2C(=O)c2c1nc(-c1ccccc1)n2CCN1CCOCC1 | 4.39 |
| 4.82 | 4.80 | 4.75 | O=C1c2ccccc2C(=O)c2c1nc(C(F)(F)F)n2CCN1CCOCC1 | 4.79 |
| 3.94 | 4.03 | 3.86 | C[N+]1(CCn2c(C(F)(F)F)nc3c2C(=O)c2ccccc2C3=O)CCOCC1 | < 3.70 |
| 3.92 | 4.63 | 3.94 | Cc1ccccc1-c1nc2c(n1CCN1CCOCC1)C(=O)c1ccccc1C2=O | 4.10 |
| < 3.70 | 3.98 | < 3.70 | Cc1nc2c(n1CCN1CCOCC1)C(=O)c1ccccc1C2=O | 3.93 |
| 4.00 | 4.14 | 3.98 | O=C1c2ccccc2C(=O)c2c1nc(C1CCC1)n2CCN1CCOCC1 | 4.07 |
| 4.28 | 4.51 | 4.32 | O=C1c2ccccc2C(=O)c2c1nc(-c1ccc(F)c(Cl)c1)n2CCN1CCOCC1 | 4.35 |
| 4.72 | 4.78 | 4.52 | O=C1c2ccccc2C(=O)c2c1nc(-c1cccc3ccccc13)n2CCN1CCOCC1 | 4.39 |
| 3.97 | 3.85 | 3.85 | C[N+]1(CCn2c(-c3ccccn3)nc3c2C(=O)c2ccccc2C3=O)CCOCC1 | 3.97 |
| 4.21 | 4.44 | 4.19 | O=C1c2ccccc2C(=O)c2c1nc(C1CC1)n2CCN1CCOCC1 | 4.40 |
| < 3.70 | 3.80 | < 3.70 | O=C1C(Cl)=C(NCCN2CCOCC2)C(=O)c2nccnc21 | 3.83 |
| 3.78 | 3.97 | 3.95 | CCCCc1nc2c(n1CCN1CCOCC1)C(=O)c1ccccc1C2=O | < 3.70 |
